Reference: patent publication US20150366998A1, “ORAL DELIVERY OF DRUG ACTIVES IN LABORATORY ANIMALS USING FAST-DISSOLVING ORAL FILMS” (priority 2014, published 2015)
“Also recorded” adds a separate entry of the source.

Legend:
female WT mice = assay: 24-h two-bottle choice paradigm, 10% ethanol in water (10E) vs water, IVM oral thin film or gavage; format: in vivo
[1] = 30-day oral film study: body weight, food intake, organ weight to tibia length ratio, tolerability; format: in vivo, mice
Text: In this study, there were 4 groups.
IVM was given for 30 days, 5 times per week for 6 weeks. […] After being presented with the tip of the gavage needle, mice would self-administer the oral films.
Ethanol intake was expressed as g/kg/24-h and summarized using means±SEM across groups. A two-way ANOVA was used to analyze 10E intake between the 4 groups over the 30 days of treatment. A one-way ANOVA was used to compare mean 10E intake, 10E preference, water intake, fluid intake, food intake, mouse weight, and organ weight/tibia length ratio across the 4 groups. GraphPAD Prism software (San Diego, Calif.) was used for data analysis.

mice = conditions: cited from earlier work
[2] = IVM 0.21 mg oral thin film, 30 days, vs control and placebo groups
[3] = doses needed to produce the anti-alcohol effects (Bortolato 2013)

SMILES: CC[C@H](C)[C@H]1O[C@]2(CC[C@@H]1C)C[C@@H]1C[C@@H](C/C=C(\C)[C@@H](O[C@H]3C[C@H](OC)[C@@H](O[C@H]4C[C@H](OC)[C@@H](O)[C@H](C)O4)[C@H](C)O3)[C@@H](C)/C=C/C=C3\CO[C@@H]4[C@H](O)C(C)=C[C@@H](C(=O)O1)[C@]34O)O2 [IVM, ivermectin]
- 10E (alcohol) intake (female WT mice; IVM 0.21 mg oral thin film, 30 days, 5 times per week for 6 weeks, vs no action and placebo film): drank consistently less 10E; also recorded: effective in reducing 10E intake; also recorded: significantly reduces
- 10E preference (female WT mice; [2]): significantly less; also recorded: significantly reduces
- total fluid intake (female WT mice; [2]): similar; also recorded: without significantly affecting
- decrease of 10E intake compared to baseline (female WT mice; IVM 0.21 mg via fast dissolving oral film, 24-h two bottle choice, female WT mice, n=8, p<0.001 vs baseline): approximately 40%
- 10E intake (female WT mice; IVM 5 mg/kg, oral gavage (placebo gavage corn oil)): decreased 10E intake
- organ weight to tibia length ratio ([1]; IVM 0.21 mg oral thin film, 30 days, 6 organs analyzed, vs control and placebo groups): no significant difference; also recorded: without significantly affecting
- animal weight gain / change in body weight ([1]; IVM 0.21 mg oral thin film, 30 days, vs no action and placebo): similar; also recorded: without significantly affecting
- tolerability / overt signs of toxicity ([1]; chronic (30 day) oral administration of IVM via oral film): well tolerated; also recorded: without causing overt signs of toxicity
- rewarding properties (addiction liability) (mice; IVM regimen producing anti-alcohol effects): did not exert rewarding properties
- ethanol intake in mice (mice; acute and 7 day administration (Yardley 2012)): significantly reduce
- anxiolytic-like effects (mice; [3]): elicited anxiolytic-like effects
- overt signs of toxicity (mice; [3]): did not induce overt signs of toxicity
